Test results: ChEMBL document CHEMBL5584340, “Discovery of Novel Antiosteoporosis Leads with Bone Resorption Inhibition and Anabolic Promotion through a Chemotype-Assembly Approach” (J Med Chem, 2024)
Activity calls are given as the source filed them. The calls are words filed in the database; no cut-off is given here.

How the values were obtained:
C3H 10T1/2 [1] = test: Induction of osteoblast mineralization in mouse C3H 10T1/2 cells assessed as increase in calcium deposition at 1 uM measured after 14 days by Alizarin Red S staining based analysis; format: functional, cell-based; settings: time 14.0 day
C3H 10T1/2 [2] = test: Induction of osteoblastogenesis in mouse C3H 10T1/2 cells assessed as upregulation of ALP gene expression at 1 uM incubated for 7 days by RT-qPCR analysis; format: functional, cell-based; settings: time 7.0 day
[3] = Toxicity in OVX-induced osteoporosis C57BL/6 mouse model assessed as change in serum creatinine level at 10 mg/kg,po administrated for 4 week; format: organism-based; settings: in vivo, 672 h, time 4 weeks
[4] = Toxicity in OVX-induced osteoporosis C57BL/6 mouse model assessed as change in serum urea nitrogen level at 10 mg/kg,po administrated for 4 week; format: organism-based; settings: in vivo, 672 h, time 4 weeks
Mus musculus [5] = test: Anti-osteoporosis activity in OVX-induced osteoporosis C57BL/6 mouse model assessed as increase in serum PINP level at 10 mg/kg,po administrated for 4 weeks; format: functional, organism-based
[6] = Toxicity in OVX-induced osteoporosis C57BL/6 mouse model assessed as change in serum ALT level at 10 mg/kg,po administrated for 4 week; format: organism-based; settings: in vivo, 672 h, time 4 weeks
BMDM [7] = test: Anti-osteoclastogenic activity in M-CSF/RANKL-induced C57BL/6 mouse BMDM cells assessed as downregulation of CTSK mRNA expression at 1 uM incubated for 7 days by RT-qPCR analysis; format: functional, cell-based; settings: time 7.0 day
[8] = Toxicity in OVX-induced osteoporosis C57BL/6 mouse model assessed as change in hair color at 30 mg/kg,po administrated for 1 week; format: organism-based; settings: in vivo, 168 h, time 1 weeks
C3H 10T1/2 [9] = test: Induction of osteoblastogenesis in mouse C3H 10T1/2 cells assessed as upregulation of SP7 gene expression at 1 uM incubated for 7 days by RT-qPCR analysis; format: functional, cell-based; settings: time 7.0 day
Mus musculus [10] = test: Anti-osteoporosis activity in OVX-induced osteoporosis C57BL/6 mouse model assessed as increase in trabecular thickness in femur at 10 mg/kg,po administrated for 4 weeks by Micro-CT analysis; format: functional, organism-based
Mus musculus [11] = test: Anti-osteoporosis activity in OVX-induced osteoporosis C57BL/6 mouse model assessed as increase in […] in femur at 10 mg/kg,po administrated for 4 weeks by Micro-CT analysis; format: functional, organism-based
[12] = Toxicity in OVX-induced osteoporosis C57BL/6 mouse model assessed as change in serum AST level at 10 mg/kg,po administrated for 4 week; format: organism-based; settings: in vivo, 672 h, time 4 weeks
BMDM [13] = test: Anti-osteoclastogenic activity in M-CSF/RANKL-induced C57BL/6 mouse BMDM cells assessed as fold change in inhibition of M-CSF/RANKL-stimulated osteoclast differentiation at 10 uM measured after 5 days by TRAP staining based microscopic analysis relative to control; format: functional; settings: time 5 day
BMDM [14] = test: Anti-osteoclastogenic activity in M-CSF/RANKL-induced C57BL/6 mouse BMDM cells assessed as downregulation of C-Fos mRNA expression at 1 uM incubated for 7 days by RT-qPCR analysis; format: functional, cell-based; settings: time 7.0 day
Mus musculus [15] = test: Anti-osteoporosis activity in OVX-induced osteoporosis C57BL/6 mouse model assessed as increase in serum osteocalcin level at 10 mg/kg,po administrated for 4 weeks; format: functional, organism-based
Mus musculus [16] = test: Anti-osteoporosis activity in OVX-induced osteoporosis C57BL/6 mouse model assessed as increase in BV/TV in femur at 10 mg/kg,po administrated for 4 weeks by Micro-CT analysis; format: functional, organism-based
[17] = Toxicity in OVX-induced osteoporosis C57BL/6 mouse model assessed as change in serum triglyceride level at 10 mg/kg,po administrated for 4 week; format: organism-based; settings: in vivo, 672 h, time 4 weeks
Mus musculus [18] = test: Anti-osteoporosis activity in OVX-induced osteoporosis C57BL/6 mouse model assessed as decrease in serum CTX-I level at 10 mg/kg,po administrated for 4 weeks; format: functional, organism-based
Mus musculus [19] = test: Anti-osteoporosis activity in OVX-induced osteoporosis C57BL/6 mouse model assessed as prevention of bone loss in femur at 10 mg/kg,po administrated for 4 weeks by Micro-CT analysis; format: functional, organism-based
[20] = Toxicity in OVX-induced osteoporosis C57BL/6 mouse model assessed as change in mental state at 30 mg/kg,po administrated for 1 week; format: organism-based; settings: in vivo, 168 h, time 1 weeks
Mus musculus [21] = test: Anti-osteoporosis activity in OVX-induced osteoporosis C57BL/6 mouse model assessed as increase in trabecular number in femur at 10 mg/kg,po administrated for 4 weeks by Micro-CT analysis; format: functional, organism-based
C3H 10T1/2 [22] = test: Induction of osteoblastogenesis in mouse C3H 10T1/2 cells assessed as upregulation of SPARC gene expression at 1 uM incubated for 7 days by RT-qPCR analysis; format: functional, cell-based; settings: time 7.0 day
[23] = Toxicity in OVX-induced osteoporosis C57BL/6 mouse model assessed as change in serum total cholesterol level at 10 mg/kg,po administrated for 4 week; format: organism-based; settings: in vivo, 672 h, time 4 weeks
BMDM [24] = test: Anti-osteoclastogenic activity in M-CSF/RANKL-induced C57BL/6 mouse BMDM cells assessed as downregulation of ATP6VOD2 mRNA expression at 1 uM incubated for 7 days by RT-qPCR analysis; format: functional, cell-based; settings: time 7.0 day
[25] = Toxicity in OVX-induced osteoporosis C57BL/6 mouse model assessed as change in water intake at 30 mg/kg,po administrated for 1 week; format: organism-based; settings: in vivo, 168 h, time 1 weeks
[26] = Cytotoxicity against mouse RAW264.7 cells incubated for 48 hrs by CCK-8 assay; format: toxicity, cell-based
[27] = Toxicity in OVX-induced osteoporosis C57BL/6 mouse model assessed as change in stool state at 30 mg/kg,po administrated for 1 week; format: organism-based; settings: in vivo, 168 h, time 1 weeks
C3H 10T1/2 [28] = test: Induction of osteoblast differentiation in mouse C3H 10T1/2 cells at 1 uM incubated for 7 days by ALP staining based analysis; format: functional, cell-based; settings: time 7.0 day
[29] = Toxicity in OVX-induced osteoporosis C57BL/6 mouse model assessed as change in body weight at 30 mg/kg,po administrated for 1 week; format: organism-based; settings: in vivo, 168 h, time 1 weeks
BMDM [30] = test: Anti-osteoclastogenic activity in M-CSF/RANKL-induced C57BL/6 mouse BMDM cells assessed as inhibition of M-CSF/RANKL-stimulated osteoclast differentiation measured after 5 days by TRAP staining based microscopic analysis; format: functional, cell-based; settings: C57BL/6, BMDM, 120 h
BMDM [31] = test: Anti-osteoclastogenic activity in M-CSF/RANKL-induced C57BL/6 mouse BMDM cells assessed as downregulation of TRACP mRNA expression at 1 uM incubated for 7 days by RT-qPCR analysis; format: functional, cell-based; settings: time 7.0 day
C3H 10T1/2 [32] = test: Induction of osteoclastogenesis in mouse C3H 10T1/2 cells assessed as upregulation of RANKL gene expression at 1 uM incubated for 7 days by RT-qPCR analysis; format: functional, cell-based; settings: time 7.0 day
[33] = Toxicity in OVX-induced osteoporosis C57BL/6 mouse model assessed as change in urine color at 30 mg/kg,po administrated for 1 week; format: organism-based; settings: in vivo, 168 h, time 1 weeks

For O=C(O)c1cc2ccccc2cc1C(=O)Nc1nc2ccccc2s1, the Activity (C3H 10T1/2 [1]) was “Active”, the Activity (C3H 10T1/2 [2]) was “Active” and the Activity [3] was “Non-Toxic”. The Activity [4] was “Non-Toxic”, the Activity (Mus musculus [5]) was “Active” and the Activity [6] was “Non-Toxic”. The Activity (BMDM [7]) was “Active”, the Activity [8] was “Non-Toxic” and the Activity (C3H 10T1/2 [9]) was “Active”. For the same compound, the Activity (Mus musculus [10]) was “Active”, the Activity (Mus musculus [11]) was “Active” and the Activity [12] was “Non-Toxic”. For the same compound, the “fold change (FC)” value (BMDM [13]) was 21.25, the Activity (BMDM [14]) was “Active” and the Activity (Mus musculus [15]) was “Active”. For the same compound, the Activity (Mus musculus [16]) was “Active”, the Activity [17] was “Non-Toxic” and the Activity (Mus musculus [18]) was “Active”. The Activity (Mus musculus [19]) was “Active”, the Activity [20] was “Non-Toxic” and the Activity (Mus musculus [21]) was “Active”. The Activity (C3H 10T1/2 [22]) was “Active”, the Activity [23] was “Non-Toxic” and the Activity (BMDM [24]) was “Active”. The Activity [25] was “Non-Toxic”, the CC50 at 48 h [26] was 65.5 µM and the Activity [27] was “Non-Toxic”. The Activity (C3H 10T1/2 [28]) was “Active”, the Activity [29] was “Non-Toxic” and the IC50 (BMDM [30]) was 0.4 µM. The Activity (BMDM [31]) was “Active”, the Activity (C3H 10T1/2 [32]) was “inactive” and the Activity [33] was “Non-Toxic”.
